US8865704B2, “Wnt pathway antagonists” (Siena Biotech S.p.A., priority 2009, dated 2014)

Tested on: Wnt/β-catenin pathway
Assay: Wnt reporter assay (TCF-Luciferase, Firefly) in DBTRG-05MG cells
Assay type: cell-based
Conditions: Homo sapiens, 24 hours after compound addition
Description: TCF-Luciferase: Three copies of a 4×TCF responsive elements were cloned into the pcDNA3.1/Zeo(+) vector (Invitrogen) after deletion of the constitutive CMV promoter and the insertion of the Firefly Luciferase from Promega (phFL-TK) to measure the activity of the Wnt/β-catenin pathway. The resulting plasmid was sequenced for quality control.
Cells were grown in 20 μg/ml Zeocin and 20 μg/ml Zeocin plus 30 μg/ml Hygromicin respectively. The cells were plated at a density of 6500 cells/well in poly-D-lysine pre-treated 96 well-plates.
IC50 determination: 36 hours after plating cells were incubated with 8-points (60 μM-40 μM-20 μM-10 μM-5 μM-1.66 μM-0.55 μM-0.185 μM) dilutions compound (0.6% DMSO (v/v)). Each compound was tested in triplicate in single plate. Luciferase detection was done with Dual-Luciferase Reporter Assay System (Promega). 24 hours after compound addition, media was removed and 30 μl of 1× lysis buffer was added to each well for 30 minutes. To each well 45 μl of Dual-Glo Luciferase reagent (Promega) were added and after 1 second delay Luciferase was detected for 1 second using Mithras LB940 instrument. After Firefly luciferase quantification 45 μl of Dual Stop & Glo reagent (Promega) were added to each well and Firefly Renilla was detected using the same parameters described before.
Data were expressed as % of control for Firefly and Renilla luciferase independently; values were calculated using XLFit version 4.2, with a four parameters sigmoid function (XLFit model 205).

IC50, 0.3 to 30 µM:
CN1C(=O)N(C[C@H]2CC[C@H](C(=O)N3CCN(C(=O)C4CCCC4)CC3)CC2)Cc2ccccc21 [Example 68], COCC(=O)N1CCN(C(=O)[C@H]2CC[C@H](CN3Cc4ccccc4N(C)C3=O)CC2)CC1 [Example 69], O=c1[nH]c2ccccc2c(=O)n1C[C@H]1CC[C@H](C(=O)Nc2cccc3cccnc23)CC1 [Example 70], O=C(C1CCCC1)N1CCN(C(=O)[C@H]2CC[C@H](CN3Cc4ccccc4NC3=O)CC2)CC1 [Example 72], O=C(C1CC1)N1CCN(C(=O)[C@H]2CC[C@H](Cn3c(=O)c4ccccc4n(CC4CC4)c3=O)CC2)CC1 [Example 73], O=C(C1CC1)N1CCN(C(=O)[C@H]2CC[C@H](Cn3c(=O)[nH]c4ccccc43)CC2)CC1 [Example 74], COc1ccc2c(c1)c(=O)n(C[C@H]1CC[C@H](C(=O)N3CCN(C(=O)C4CCCC4)CC3)CC1)c(=O)n2C [Example 76], Cn1c(=O)n(C[C@H]2CC[C@H](C(=O)N3CCN(C(=O)C4CCCO4)CC3)CC2)c(=O)c2ccccc21 (stereo partly shown) [Example 81], O=C(C1CC1)N1CCN(C(=O)[C@H]2CC[C@H](Cn3c(=O)[nH]c4ccc(F)cc4c3=O)CC2)CC1 [Example 82], O=C(C1CC1)N1CCN(C(=O)[C@H]2CC[C@H](Cn3c(=O)c4ccccc4n(C(F)F)c3=O)CC2)CC1 [Example 83], COc1ccc2c(c1)c(=O)n(C[C@H]1CC[C@H](C(=O)N3CCN(C(=O)C4CC4)CC3)CC1)c(=O)n2CC1CC1 [Example 84], O=C(C1CC1)N1CCN(C(=O)[C@H]2CC[C@H](CN3Cc4cc(Cl)ccc4NC3=O)CC2)CC1 [Example 85], COc1ccc2[nH]c(=O)n(C[C@H]3CC[C@H](C(=O)N4CCN(C)C(=O)C4)CC3)c(=O)c2c1 [Example 86], CCN1CCN(C(=O)[C@H]2CC[C@H](Cn3c(=O)[nH]c4ccc(OC)cc4c3=O)CC2)CC1=O [Example 87], COCCN1CCN(C(=O)[C@H]2CC[C@H](Cn3c(=O)[nH]c4ccc(OC)cc4c3=O)CC2)CC1=O [Example 88], COc1ccc2[nH]c(=O)n(C[C@H]3CC[C@H](C(=O)N4CCOCC4)CC3)c(=O)c2c1 [Example 89], COc1ccc2[nH]c(=O)n(C[C@H]3CC[C@H](C(=O)N4CCCOCC4)CC3)c(=O)c2c1 [Example 90], COc1ccc2[nH]c(=O)n(C[C@H]3CC[C@H](C(=O)N4CCN(c5cnccn5)CC4)CC3)c(=O)c2c1 [Example 91], CCN1CCN(C(=O)[C@H]2CC[C@H](Cn3c(=O)c4cc(OC)ccc4n(C)c3=O)CC2)CC1=O [Example 93], COCCN1CCN(C(=O)[C@H]2CC[C@H](Cn3c(=O)c4cc(OC)ccc4n(C)c3=O)CC2)CC1=O [Example 94], Cc1ccc2[nH]c(=O)n(C[C@H]3CC[C@H](C(=O)N4CCN(C(=O)C5CC5)CC4)CC3)c2c1 [Example 95], COc1ccc2[nH]c(=O)n(C[C@H]3CC[C@H](C(=O)N4CCN(C(=O)C(C)(C)F)CC4)CC3)c(=O)c2c1 [Example 96], COc1ccc2[nH]c(=O)n(C[C@H]3CC[C@H](C(=O)N4CCN(C(=O)C5CC5(F)F)CC4)CC3)c(=O)c2c1 (stereo partly shown) [Example 97], COc1ccc2[nH]c(=O)n(C[C@H]3CC[C@H](C(=O)N4CCN(c5ncccn5)CC4)CC3)c(=O)c2c1 [Example 98], CCCC(C)C(=O)N1CCN(C(=O)[C@H]2CC[C@H](Cn3c(=O)[nH]c4ccc(OC)cc4c3=O)CC2)CC1 (stereo partly shown) [Example 100], CCC(C)C(=O)N1CCN(C(=O)[C@H]2CC[C@H](Cn3c(=O)[nH]c4ccc(OC)cc4c3=O)CC2)CC1 (stereo partly shown) [Example 101], COc1ccc2[nH]c(=O)n(C[C@H]3CC[C@H](C(=O)N4CCN(C(=O)c5ccno5)CC4)CC3)c(=O)c2c1 [Example 102], COc1ccc2[nH]c(=O)n(C[C@H]3CC[C@H](C(=O)N4CCN(C(=O)OC(C)C)CC4)CC3)c(=O)c2c1 [Example 103], CCC(C)OC(=O)N1CCN(C(=O)[C@H]2CC[C@H](Cn3c(=O)[nH]c4ccc(OC)cc4c3=O)CC2)CC1 (stereo partly shown) [Example 104], COc1ccc2[nH]c(=O)n(C[C@H]3CC[C@H](C(=O)N4CCN(CC5CC5)C(=O)C4)CC3)c(=O)c2c1 [Example 105], COc1ccc2[nH]c(=O)n(C[C@H]3CC[C@H](C(=O)N4CCN(C(=O)C5CCC5)CC4)CC3)c(=O)c2c1 [Example 106], CC(C)(F)C(=O)N1CCN(C(=O)[C@H]2CC[C@H](Cn3c(=O)[nH]c4ccccc4c3=O)CC2)CC1 [Example 107], O=C(C1CC1(F)F)N1CCN(C(=O)[C@H]2CC[C@H](Cn3c(=O)[nH]c4ccccc4c3=O)CC2)CC1 (stereo partly shown) [Example 108], COc1ccc2[nH]c(=O)n(C[C@H]3CC[C@H](C(=O)N4CCN(C(=O)[C@@H]5CCCO5)CC4)CC3)c(=O)c2c1 [Example 110], O=C(C1CC1)N1CCN(C(=O)[C@H]2CC[C@H](Cn3c(=O)[nH]c4cc(Cl)ccc43)CC2)CC1 [Example 111], O=C(C1CC1)N1CCN(C(=O)[C@H]2CC[C@H](Cn3c(=O)[nH]c4cc(C(F)(F)F)ccc43)CC2)CC1 [Example 112], COc1ccc2[nH]c(=O)n(C[C@H]3CC[C@H](C(=O)Nc4ccncc4)CC3)c(=O)c2c1 [Example 113], COc1ccc2[nH]c(=O)n(C[C@H]3CC[C@H](C(=O)Nc4ccc5oc(C)nc5c4)CC3)c(=O)c2c1 [Example 114], COc1ccc2[nH]c(=O)n(C[C@H]3CC[C@H](C(=O)N4CCN(C(=O)c5cncn5C)CC4)CC3)c(=O)c2c1 [Example 115], COc1ccc2[nH]c(=O)n(C[C@H]3CC[C@H](C(=O)N4CCN(C(=O)c5ccncn5)CC4)CC3)c(=O)c2c1 [Example 117], COc1ccccc1NC(=O)[C@H]1CC[C@H](CN2CCc3ccccc3NC2=O)CC1 [Example 118], COc1ccccc1NC(=O)[C@H]1CC[C@H](CN2C(=O)Cc3ccccc3N(C)C2=O)CC1 [Example 119], COc1ccccc1NC(=O)[C@H]1CC[C@H](CN2C(=O)Cc3ccccc3NC2=O)CC1 [Example 120], COc1ccc2c(c1)c(=O)n(C[C@H]1CC[C@H](C(=O)N3CCN(c4nccs4)CC3)CC1)c(=O)n2C [Example 121], CCC(C)C(=O)N1CCN(C(=O)[C@H]2CC[C@H](Cn3c(=O)c4cc(OC)ccc4n(C)c3=O)CC2)CC1 (stereo partly shown) [Example 123], CCCC(C)C(=O)N1CCN(C(=O)[C@H]2CC[C@H](Cn3c(=O)c4cc(OC)ccc4n(C)c3=O)CC2)CC1 (stereo partly shown) [Example 124], COc1ccc2c(c1)c(=O)n(C[C@H]1CC[C@H](C(=O)N3CCN(C(=O)OCC(C)C)CC3)CC1)c(=O)n2C [Example 125], COc1ccc2[nH]c(=O)n(C[C@H]3CC[C@H](C(=O)N4CCN(C(=O)C5CC5)C[C@H]4C)CC3)c(=O)c2c1 [Example 126], COCC(=O)N1CCN(C(=O)[C@H]2CC[C@H](Cn3c(=O)[nH]c4ccc(OC)cc4c3=O)CC2)[C@H](C)C1 [Example 127], COc1ccc2c(c1)c(=O)n(C[C@H]1CC[C@H](C(=O)N3CCN(C(=O)[C@@H]4CCCO4)CC3)CC1)c(=O)n2C [Example 128], COc1ccc2c(c1)c(=O)n(C[C@H]1CC[C@H](C(=O)N3CCN(C(=O)C4CCC4)CC3)CC1)c(=O)n2C [Example 129], COc1ccc2c(c1)c(=O)n(C[C@H]1CC[C@H](C(=O)N3CCN(C(=O)OC(C)C)CC3)CC1)c(=O)n2C [Example 130], COc1ccc2c(c1)c(=O)n(C[C@H]1CC[C@H](C(=O)N3CCN(C(=O)[C@H]4CCCO4)CC3)CC1)c(=O)n2C [Example 131], COc1ccc2c(c1)c(=O)n(C[C@H]1CC[C@H](C(=O)N3CCN(CC4CC4)C(=O)C3)CC1)c(=O)n2C [Example 132], COCC(=O)N1CCN(C(=O)[C@H]2CC[C@H](Cn3c(=O)[nH]c4ccc(OC)cc4c3=O)CC2)[C@@H](C)C1 [Example 133], COc1ccc2[nH]c(=O)n(C[C@H]3CC[C@H](C(=O)N4CCN(C(=O)C5CC5)CC4)CC3)c2c1 [Example 134], COCCC(=O)N1CCN(C(=O)[C@H]2CC[C@H](Cn3c(=O)c4cc(OC)ccc4n(C)c3=O)CC2)CC1 [Example 137], COc1ccc2c(c1)c(=O)n(C[C@H]1CC[C@H](C(=O)N3CCN(C(=O)C4CC4)C[C@H]3C)CC1)c(=O)n2C [Example 138], COc1ccc2[nH]c(=O)n(C[C@H]3CC[C@H](C(=O)N4CCN(c5ccncc5)CC4)CC3)c(=O)c2c1 [Example 139], COc1ccc2[nH]c(=O)n(C[C@H]3CC[C@H](C(=O)N4CCN(c5cccc(OC)n5)CC4)CC3)c(=O)c2c1 [Example 140], COc1ccc2c(c1)c(=O)n(C[C@H]1CC[C@H](C(=O)N3CCN(C(=O)COC(C)C)CC3)CC1)c(=O)n2C [Example 141]
